Source: patent US4783528A, “Steroidal lariat ethers” (University of Miami (Department of Chemistry), priority 1987, dated 1988)

Columns and labels:
[1] = Cation binding constant (log KS) for K+ in anhydrous methanol at 25° C.; conditions: decadic (log10) logarithm of equilibrium constant lariat ether + cation = complex
Protocol: (§1) As a result, only the macroring itself is expected to provide cation binding sites.
(§2) ^a Binding constants determined in anhydrous methanol solution at
(§3) 25° C. as described in the articles by Dishong et al., and Schultz
(§4) Notes. a. Binding constants determined in anhydrous methanol solution at 25° C. as described in the articles by Dishong et al., and Schultz et al. referred to above.
(§5) The binding constant, usually referred to as KS, is the equilibrium constant for the reaction: lariat ether + cation .revreaction. complex. The values in the table are expressed as decadic (log10) logarithms.

[2] = Cation binding constant (log KS) for Na+ in anhydrous methanol at 25° C.; conditions: decadic (log10) logarithm of equilibrium constant lariat ether + cation = complex
Protocol: as §1, §2, §3, §4, §5

CC(C)CCC[C@@H](C)[C@H]1CC[C@H]2[C@@H]3CC=C4C[C@@H](OC(=O)CN5CCOCCOCCOCCOCC5)CC[C@]4(C)[C@H]3CC[C@]12C [Compound 4, Cholesteryl (4-aza-15-crown-5)acetate]
Cation Binding Constants (log KS), K^+ [1]: 4.03
Cation Binding Constants (log KS), Na^+ [2]: 4.10

CC(C)CCC[C@@H](C)[C@H]1CC[C@H]2[C@@H]3CC=C4C[C@@H](OC(=O)CN5CCOCCOCCOCCOCCOCC5)CC[C@]4(C)[C@H]3CC[C@]12C [Compound 5, Cholesteryl (4-aza-18-crown-6) acetate]
Cation Binding Constants (log KS), K^+ [1]: 5.75
Cation Binding Constants (log KS), Na^+ [2]: 4.56

CC(C)CCC[C@@H](C)[C@H]1CC[C@H]2[C@@H]3CC[C@H]4C[C@@H](OC(=O)CN5CCOCCOCCOCCOCC5)CC[C@]4(C)[C@H]3CC[C@]12C [Compound 6, Cholestanyl (4-aza-15-crown-5) acetate]
Cation Binding Constants (log KS), K^+ [1]: 4.03
Cation Binding Constants (log KS), Na^+ [2]: 4.12

CC(C)CCC[C@@H](C)[C@H]1CC[C@H]2[C@@H]3CC=C4C[C@@H](OC(=O)N5CCOCCOCCOCCOCC5)CC[C@]4(C)[C@H]3CC[C@]12C [Compound 8, N-(Cholesteryloxycarbonyl)aza-15-crown-5]
Cation Binding Constants (log KS), K^+ [1]: < 1.5
Cation Binding Constants (log KS), Na^+ [2]: < 1.5

CC(C)CCC[C@@H](C)[C@H]1CC[C@H]2[C@@H]3CC=C4C[C@@H](OC(=O)N5CCOCCOCCOCCOCCOCC5)CC[C@]4(C)[C@H]3CC[C@]12C [Compound 9, N-(Cholesteryloxycarbonyl)aza-18-crown-6]
Cation Binding Constants (log KS), K^+ [1]: 1.78
Cation Binding Constants (log KS), Na^+ [2]: 2.07

Cholestanyl (4-aza-18-crown-6)acetate [Compound 7]
Cation Binding Constants (log KS), K^+ [1]: 5.78
Cation Binding Constants (log KS), Na^+ [2]: 4.58
